Drawing on US20080254136A1, “Antiprotozoal Agent” (JAPAN HEALTH SCIENCES FOUNDATION, priority 2004, published 2008), this text covers IC50 for 8 compounds.

In brackets after ≈: the same amount, converted by molar mass.

In one assay the test system is leishmania. Description: antileishmanial activity measurement (leishmania culture, Tetracolor ONE, OD 450-630 nm). In kind it is cell-based. The conditions noted are these: leishmania culture 2×10^5/ml, 27° C., 5% CO2, 48 hours, then Tetracolor ONE 6 hours; mean of 3 wells. From the text: A hexane extract from Lithospermi Radix (obtained by the method used for Reference example 1), a hexane extract from a mixture of Lithospermi Radix and Angelicae Radix (obtained by the method used for Reference example 2), shikonin (Nagara Science), acetylshikonin (Nagara Science), β,β-dimethylacrylshikonin (Nagara Science), isobutyrylshikonin (Nagara Science), α-methyl-n-butyrylshikonin (Nagara Science), isovalerylshikonin (Nagara Science), β-hydroxyisovalerylshikonin (Nagara Science), and alkanine (Wako Pure Chemical Industries, Ltd.) were subjected to antileishmanial activity measurement.
First, 1 to 5 mg of each sample was dissolved in dimethylsulfoxide (DMSO) such that DMSO solutions (10 mg/ml) were prepared. Then, the solutions were diluted with Medium 199 (800 μg/ml) and allowed to pass through a membrane filter. The resulting test solutions were adjusted to 9 different concentrations. The test solutions (50 μl) at different concentrations and a leishmania culture solution (50 μl) that had been adjusted to a final concentration of 2×10^5/ml were introduced into wells of a microtiter plate such that the total volume of each culture solution was 100 μl in each well. After incubation at 27° C. in the presence of 5% CO2 for 48 hours, 10 μl of a Tetracolor ONE reagent was added thereto, followed by incubation for 6 hours. Thereafter, the OD value (450-630 nm) was measured using a microplate reader. Each sample at each concentration (3 wells) was subjected to measurement such that the mean value was obtained. Then, a graph was created such that the IC50 value was obtained.
As usually defined, the IC50 is the point on the concentration scale where inhibition reaches its midpoint. In turn, `CC(=O)O[C@H](CC=C(C)C)C1=CC(=O)c2c(O)ccc(O)c2C1=O` [Acetylshikonin, acetylshikonin] showed an IC50 of 0.026 mg/L (≈ 0.0787 µM).

`CC(C)=CC[C@@H](OC(=O)C(C)C)C1=CC(=O)c2c(O)ccc(O)c2C1=O` [Isobutyrylshikonin, isobutyrylshikonin] yielded an IC50 of 0.017 mg/L (≈ 0.0474 µM). The same measure, in the same setting: then `CC(C)=CCC(OC(=O)CC(C)C)C1=CC(=O)c2c(O)ccc(O)c2C1=O` (centres unmarked) [Isovalerylshikonin, isovalerylshikonin], with 0.02 mg/L (≈ 0.0537 µM); and `CC(C)=CC[C@@H](O)C1=CC(=O)c2c(O)ccc(O)c2C1=O` [Shikonin, shikonin], with 0.09 mg/L (≈ 0.312 µM); and `CCC(C)C(=O)OC(CC=C(C)C)C1=CC(=O)c2c(O)ccc(O)c2C1=O` (stereo not drawn) [α-methyl-n-butyrylshikonin], with 0.014 mg/L (≈ 0.0376 µM). The same measure, in the same setting: for `CC(C)=CCC(OC(=O)C=C(C)C)C1=CC(=O)c2c(O)ccc(O)c2C1=O` (stereo not drawn) [β,β-dimethylacrylshikonin] the value was 0.014 mg/L (≈ 0.0378 µM); for `CC(C)=CC[C@@H](OC(=O)CC(C)(C)O)C1=CC(=O)c2c(O)ccc(O)c2C1=O` [β-hydroxyisovalerylshikonin], 0.19 mg/L (≈ 0.489 µM).

Still in this assay, the particulars now being: leishmania culture 2×10^5/ml, 27° C., 5% CO2, 48 hours, then Tetracolor ONE 6 hours; mean of 3 wells; read-out: IC50.
For `CC(C)=CC[C@H](O)C1=CC(=O)c2c(O)ccc(O)c2C1=O` [Alkanine, alkanine], the IC50 turned out to be 0.028 mg/L (≈ 0.0971 µM).
